This is an account of results in patent US20040028752A1, “Topical pharmaceutical composition comprising a cholinergic agent or a calcium channel blocker” (S.L.A. Pharma AG., priority 2002, published 2004).

The test system of data set [1] is resting anal sphincter pressure. In words: Diltiazem dose ranging study on healthy volunteers, eight channel water perfused manometer. Format: in vivo, human. The text has this: Concentrations of diltiazem cream used were 0.1%, 0.5%, 1%, 2%, 5% and 10%. […] The maximal effect, at which the mean resting anal pressure was lowered by 28% (P<0.0001), was produced by 2% w/w cream (See FIG. 1).

Data set [2] relates to chronic anal fissures. In words: Open study of diltiazem cream in patients with anal fissures. Format: in vivo, human. The text has this: 2% diltiazem cream from example 2 was applied to the anus three times daily for 8 weeks to treat patients suffering from chronic anal fissures (in an uncontrolled, open, pilot study). To date, 7 patients were studied and followed up between 2 to 5 weeks. 5 patients have had complete resolution of symptoms, of whom 3 have complete and 2 partial healing of the fissure. In four of these 5 patients there has been a reduction of the maximum resting anal sphincter pressure to within normal limits. The last patient, though symptom free, continues to have a high anal resting pressure.
2 patients have only had two weeks of treatment and one is symptom free after this short period, whilst the other still has occasional pain. It is too early to comment on healing of fissures in these two patients.

In data set [3] the test system is internal anal resting pressure. Particulars: given orally at 60 mg; cited from earlier work.
Data set [4] has as its system mean anal resting pressure. In words: Study of example 4 repeated using oral diltiazem.
The test system of data set [5] is resting anal sphincter pressure. In words: Bethanechol dose ranging study in healthy volunteers. Format: in vivo, human. The text has this:
Bethanechol cream at concentrations of 0.05%, 0.1%, 0.5% and 1% w/w bethanechol were made up in accordance with example 1. The compositions were studied following initial experimentation in an open way to determine a clinically effective dose range. […] Maximal effect was produced by application of 0.1% bethanechol and higher concentrations of the cream produced no additional effect. At 0.1% w/w bethanechol, the mean resting pressure was reduced from about 110 cm to about 85 cm H2O (about 25% decrease). A typical ‘one inch’ application of this cream from the tube is equivalent to 400 mcg of bethanechol.

The subject of data set [6] is chronic anal fissures. In words: Open study of bethanechol cream in patients with chronic anal fissures. Format: in vivo, human. Particulars: 0.1% cream three times daily. The text has this:
The 0.1% bethanechol cream of example 3 was applied to the anus three times daily for an eight week course to treat patients suffering from chronic anal fissures (in an uncontrolled, open, pilot study). To date, 6 patients have been treated and followed up for 3 to 5 weeks. Four patients have had complete resolution of symptoms, of whom 3 have complete and 1 partial healing of the fissure. In all of these 4 patients there has been a reduction of the maximum resting anal sphincter pressure to within normal limits. One patient discovered they were pregnant and treatment was discontinued. The last patient has had no relief and remains symptomatic after 4 weeks' follow up.

For data set [7], the system named is internal anal resting pressure. The following applies: topical use; cited from earlier work.
Data set [8] relates to maximum resting pressures in the anal canal. The following applies: after 1 hour, patients with anal fissures; cited from earlier work.
[9] abbreviates: 2% cream three times daily, among the 5 patients with complete resolution of symptoms.
[10] abbreviates: among the four patients with complete resolution of symptoms.

Like-named read-outs stand apart in the source and are kept apart here.

Take `COc1ccc([C@@H]2Sc3ccccc3N(CCN(C)C)C(=O)[C@@H]2OC(C)=O)cc1` [diltiazem]: the “mean resting anal pressure lowered by” value in data set [1] (2% w/w cream, topical to anus, ten healthy volunteers, maximal effect, P<0.0001) came to 28%. The “effect on resting anal sphincter pressure” value in data set [1] (topical cream 0.1%, 0.5%, 1%, 2%, 5% and 10%) is listed as “dose dependent reduction”. The “effect of a single application sustained for” value in data set [1] (topical diltiazem, healthy volunteers (FIG. 2: 1% w/w gel)) lay in the range of 3 to 5 h. The “patients with complete resolution of symptoms” value in the data set with chronic anal fissures [2] (2% cream three times daily, 7 patients studied, follow up 2 to 5 weeks) is recorded as 5 patients. In the data set with chronic anal fissures [2] (setting [9]), the “patients with complete healing of the fissure” value worked out at 3 patients and the “patients with partial healing of the fissure” value was determined as 2 patients. In the data set on chronic anal fissures [2] (2% cream three times daily, of the 5 symptom-free patients), the “patients with reduction of the maximum resting anal sphincter pressure to within normal limits” value is given as “four”. Besides, in the data set with chronic anal fissures [2] (2% cream, of the 2 patients with only two weeks of treatment), the “patients symptom free after two weeks of treatment” value is listed as “one”. Besides, the “effect on internal anal resting pressure” value in data set [3] is recorded as “reduce internal anal resting pressure”. For the same compound, the “effect on mean anal resting pressure” value in data set [4] (60 mg oral once a day) was “no notable effect”. Besides, in data set [4] (60 mg oral twice a day), the “patients who noticed postural dizziness” value is “two”. Further, in data set [4] (60 mg oral twice a day, P=0.008), the “mean anal resting pressure reduced by” value is listed as 17%.
For the compound `CC(C[N+](C)(C)C)OC(N)=O` (centres unmarked) [bethanechol], the “decrease of mean resting pressure” value in data set [5] (0.1% w/w bethanechol topical, healthy volunteers) is listed as “about 25%”. For the same compound, in data set [5] (0.1% w/w bethanechol topical, healthy volunteers, reduced from about 110 cm), the “mean resting pressure after application” value is recorded as “about 85 cm H2O”. Further, in data set [5] (topical 0.05%, 0.1%, 0.5% and 1% w/w), the “effect on resting anal sphincter pressure” value is listed as “dose dependent reduction”. In addition, the “effect of a single application sustained from” value in data set [5] (topical bethanechol, healthy volunteers (FIG. 4: 0.1% w/w gel)) was 3 to 5 h. For the same compound, the “concentration producing the maximal effect on resting anal sphincter pressure” value in data set [5] (topical, 0.05%, 0.1%, 0.5% and 1% w/w tested, higher concentrations no additional effect) amounted to 0.1%. In addition, in the data set on chronic anal fissures [6] (6 patients treated, follow up 3 to 5 weeks), the “patients with complete resolution of symptoms” value was “Four”. Further, in the data set with chronic anal fissures [6] (setting [10]), the “patients with complete healing of the fissure” value was found to be 3 patients and the “patients with partial healing of the fissure” value is given as 1 patients. Besides, the “patients with reduction of the maximum resting anal sphincter pressure to within normal limits” value in the data set with chronic anal fissures [6] (of the 4 symptom-free patients) is listed as 4 patients.
In the case of `O=[N+]([O-])OCC(CO[N+](=O)[O-])O[N+](=O)[O-]` [glyceryl trinitrate], in data set [7], the “effect on internal anal resting pressure” value is listed as “reduces the internal anal resting pressure”.
Take `O=C(NC1CCN(CCc2c[nH]c3ccccc23)CC1)c1ccccc1` [indoramin]: the “reduction of maximum resting pressures in the anal canal” value in data set [8] is on record as 35.8%.
